Reference: patent publication US20110039787A1, “COMPOSITIONS, KITS AND METHODS FOR TREATING BENIGN PROSTATE HYPERPLASIA” (priority 2009, published 2011)
Square brackets hold non-standard residues; d marks the D form. Peptide text beside a SMILES is read from it. * marks the point of attachment. dPhe(4-NHCONH2) = NC(=O)Nc1ccc(C[C@@H](N)C(=O)O)cc1; Dihydroorotyl(S) = O=C1C[C@@H](C(=O)*)NC(=O)N1; dPhe(4-Cl) = N[C@H](Cc1ccc(Cl)cc1)C(=O)O; Phe(4-NH2) = Nc1ccc(C[C@H](N)C(=O)O)cc1; d2Nal = N[C@H](Cc1ccc2ccccc2c1)C(=O)O; Lys(iPr) = CC(C)NCCCC[C@H](N)C(=O)O; d3Pal = N[C@H](Cc1cccnc1)C(=O)O

Legend:
men with BPH [1] = conditions: in vivo
Protocol: The study population was men with BPH with: a prostate volume larger than 30 mL, a maximal uroflow of 12 mL/s (with some exceptions), an IPSS score of at least 13, serum prostatic specific antigen (PSA) below 10 ng/mL, and no evidence of prostate cancer. Altogether, 52 patients with BPH were randomly assigned to four parallel groups of 13 patients each.
The patients were randomly allocated to receive either: one injection of 64 mg degarelix on Day 0 (hereinafter termed “64 mg”); one injection of 32 mg degarelix on Day 0 and one on Day 14 (hereinafter termed “32+32 mg”); one injection of 32 mg degarelix on Day 0 (hereinafter termed “32 mg”); or one injection of 16 mg degarelix on Day 0 and one on Day 14 (hereinafter termed “16+16 mg”).
In order to evaluate the effects of degarelix on urinary morbidity, sexual function and overall quality of life (QoL) due to urinary condition, patient reported questionnaires (IPSS, IIEF, and IPSS-global QoL) were used. The questionnaires were answered by the patient at the clinic visits, in line with standard procedures.
The IIEF questionnaire evaluated sexual dysfunction associated with treatment. […] Question numbers one to ten are scored on a six-point scale from zero ('No sexual activity') to five (Almost always to always'). Question numbers 11-15 are scored on a five-point scale from one (Almost never or never') to five (Almost always to always'). […]

men with BPH [2] = test: IPSS global QoL question, clinical trial in BPH patients; assay type: in vivo
Protocol: For each patient, the following parameters were measured or assessed (using the methods discussed below), at time points of screening day 0 (e.g., −7 days, “baseline”), day 14, day 28, and day 42:
After the initial 6-week treatment period of the exploratory study had been completed, a 12-month follow-up period looking at long-term efficacy commenced. Interim data of the main efficacy variables (IPSS, IPSS Global QoL, prostate volume, urinary flow, and post-void residual volume—measured as set out below) after 6 months' follow-up are also presented herein at Tables 1, 2, 3, and FIG. 1b. FIG. 1b also includes IPSS data at 9 and 12 months.
Included in the IPSS is one item to evaluate QoL (i.e., IPSS-global QoL). The Global QoL Question was developed alongside the IPSS and was officially included as part of the IPSS in 1993 when the WHO formally recommended the IPSS for both symptom and QoL assessment. […] This question assesses the degree to which patients find their symptoms bothersome. Patients are asked about how they would feel if they were to spend the rest of their lives with their prostate symptoms just as they are now. The choices for answering this quality of life question range from “delighted” (rating=0) to “terrible” (rating=6).

testosterone = test: Serum testosterone concentration-time profile (LC-MS/MS); assay type: in vivo, men; conditions: for Lowest mean testosterone level: Day 1; for Number of patients with testosterone below the castration level 0.5 ng/mL at one or more time-points / Percentage of patients with testosterone below the castration level 0.5 ng/mL at one or more time-points: up to Day 42
[3] = 16+16 mg, Month 6 follow-up, n=6
[4] = 32+32 mg, Month 6 follow-up, n=7
[5] = combined group (all doses), Day 42
[6] = 16+16 mg, after the first administration

CC(=O)N[C@H](Cc1ccc2ccccc2c1)C(=O)N[C@H](Cc1ccc(Cl)cc1)C(=O)N[C@H](Cc1cccnc1)C(=O)N[C@@H](CO)C(=O)N[C@@H](Cc1ccc(NC(=O)[C@@H]2CC(=O)NC(=O)N2)cc1)C(=O)N[C@H](Cc1ccc(NC(N)=O)cc1)C(=O)N[C@@H](CC(C)C)C(=O)N[C@@H](CCCCNC(C)C)C(=O)N1CCC[C@H]1C(=O)N[C@H](C)C(N)=O [Degarelix, D-Alaninamide, N-acetyl-3-(2-naphthalenyl)-D-alanyl-4-chloro-D-phenylalanyl-3-(3-pyridinyl)-D-alanyl-L-seryl-4-[[[(4S)-hexahydro-2,6-dioxo-4-pyrimidinyl]carbonyl]amino]-L-phenylalanyl-4-[(aminocarbonyl)amino]-D-phenylalanyl-L leucyl-N6-(1-methylethyl)-L-lysyl-L-prolyl] (Ac-[d2Nal][dPhe(4-Cl)][d3Pal]S[Phe(4-NH2)](Dihydroorotyl(S))[dPhe(4-NHCONH2)]L[Lys(iPr)]P[dA]-NH2)
Change of IIEF scores (men with BPH [1]): mild decrease | Mean IPSS global QoL score, mean (SD) (men with BPH [2]; 32 mg, Day 42, N=12): 1.8 (2.0) | Mean change from baseline in IPSS global QoL score, mean (SD) (men with BPH [2]; 32 mg, Day 42, N=12): −2.1 (3.0) | Change from baseline in IPSS global QoL score, mean (SD) (men with BPH [2]; 32 mg, Month 6 follow-up, n=7): −1.4 (1.1) | Mean IPSS global QoL score, mean (SD) (men with BPH [2]; 32 mg, Month 6 follow-up, n=7): 1.4 (1.5) | Mean IPSS global QoL score, mean (SD) (men with BPH [2]; 64 mg, Day 42, N=13): 2.5 (1.3) | Mean change from baseline in IPSS global QoL score, mean (SD) (men with BPH [2]; 64 mg, Day 42, N=13): −2.2 (1.6) | Change from baseline in IPSS global QoL score, mean (SD) (men with BPH [2]; 64 mg, Month 6 follow-up, n=4): −0.8 (1.7) | Mean IPSS global QoL score, mean (SD) (men with BPH [2]; 64 mg, Month 6 follow-up, n=4): 3.8 (1.3) | Mean IPSS global QoL score, mean (SD) (men with BPH [2]; 16+16 mg, Day 42, N=13): 2.9 (1.4) | Mean change from baseline in IPSS global QoL score, mean (SD) (men with BPH [2]; 16+16 mg, Day 42, N=13): −1.2 (1.4) | Change from baseline in IPSS global QoL score, mean (SD) (men with BPH [2]; [3]): −0.3 (0.5) | Mean IPSS global QoL score, mean (SD) (men with BPH [2]; [3]): 4.2 (1.5) | Mean IPSS global QoL score, mean (SD) (men with BPH [2]; 32+32 mg, Day 42, N=12): 1.9 (1.6) | Mean change from baseline in IPSS global QoL score, mean (SD) (men with BPH [2]; 32+32 mg, Day 42, N=12): −2.4 (1.9) | Change from baseline in IPSS global QoL score, mean (SD) (men with BPH [2]; [4]): −2.7 (2.1) | Mean IPSS global QoL score, mean (SD) (men with BPH [2]; [4]): 1.6 (0.8) | Patients feeling delighted, pleased, or mostly satisfied (IPSS Global QoL scores 0-2) (men with BPH [2]; [5]): 58% | Patients feeling unhappy or terrible (IPSS Global QoL scores 5 and 6) (men with BPH [2]; [5]): 12% | Greatest change from baseline in mean testosterone (testosterone; 32 mg): -4.2 ng/mL | Mean minimal value of testosterone (Cnadir) (testosterone; 32 mg): 0.9 ng/mL | Mean time-point (tnadir) to Cnadir of testosterone (testosterone; 32 mg): 1.3 days | Lowest mean testosterone level (testosterone; 32 mg, SD 0.5): 0.9 ng/mL | Mean testosterone level on Day 42 (testosterone; 32 mg, Day 42 (5.2 at baseline)): 5.3 ng/mL | Mean time for first return of testosterone to baseline interval after the first administration (testosterone; 32 mg, SD=5.2): 9.1 days | Mean area of testosterone concentrations below 0.5 ng/mL (testosterone; 32 mg, range 0.0-0.1): 0.0 ng·days/mL | Number of patients with testosterone below the castration level 0.5 ng/mL at one or more time-points (testosterone; 32 mg): 3 patients | Percentage of patients with testosterone below the castration level 0.5 ng/mL at one or more time-points (testosterone; 32 mg): 25% | Greatest change from baseline in mean testosterone (testosterone; 64 mg): -4.7 ng/mL | Mean minimal value of testosterone (Cnadir) (testosterone; 64 mg): 0.4 ng/mL | Mean time-point (tnadir) to Cnadir of testosterone (testosterone; 64 mg): 8.8 days | Lowest mean testosterone level (testosterone; 64 mg, SD 0.2): 0.4 ng/mL | Mean testosterone level on Day 42 (testosterone; 64 mg, Day 42 (5.2 at baseline)): 3.0 ng/mL | Patients still below testosterone 0.5 ng/mL on Day 42 (testosterone; 64 mg, Day 42, of the 8 patients suppressed): Five | Mean area of testosterone concentrations below 0.5 ng/mL (testosterone; 64 mg, range 0.0-15.2): 4.4 ng·days/mL | Number of patients with testosterone below the castration level 0.5 ng/mL at one or more time-points (testosterone; 64 mg): 9 patients | Percentage of patients with testosterone below the castration level 0.5 ng/mL at one or more time-points (testosterone; 64 mg): 69% | Greatest change from baseline in mean testosterone (testosterone; 16+16 mg): -4.0 ng/mL | Lowest mean testosterone level (testosterone; 16+16 mg, SD 0.5): 1.4 ng/mL | Mean testosterone level on Day 42 (testosterone; 16+16 mg, Day 42 (5.5 at baseline)): 4.5 ng/mL | Mean time for first return of testosterone to baseline interval after the first administration (testosterone; 16+16 mg, SD=2.8): 6.1 days | Mean time to second return of testosterone to baseline interval (after the second administration) (testosterone; 16+16 mg, SD=33.9, calculated, not measured values): 19.5 days | Mean minimal value of testosterone (Cnadir) (testosterone; [6]): 1.4 ng/mL | Mean time-point (tnadir) to Cnadir of testosterone (testosterone; [6]): 1.1 days
